≈ marks a conversion by molar mass, not a printed value. Like-named read-outs stand apart in the source and are kept apart here.
Tests used:
[1] = tested on: Kleb. pn.; experiment: in vitro MIC in BHI broth, Kleb. pn.; type: cell-based
[2] = tested on: Strep. pyog.; experiment: in vitro MIC in BHI broth, Strep. pyog.; type: cell-based
Source text: (§1) Generally twelve 2 fold dilutions of the test compound are employed, with initial concentration of the test drug being in the range of 50 to 200 mcg./ml.
(§2) The susceptibility (MIC) of the test organism is accepted as the lowest concentration of compound capable of producing complete inhibition of growth as judged by the naked eye.

[3] = tested on: Kleb. oxy.; experiment: in vitro MIC in BHI broth, Kleb. oxy.; type: cell-based
Source text: as §1, §2

[4] = tested on: Serr. mar.; experiment: in vitro MIC in BHI broth, Serr. mar.; type: cell-based
Source text: as §1, §2

[5] = tested on: Past. mult.; experiment: in vitro MIC in BHI broth, Past. mult.; type: cell-based
Source text: as §1, §2

[6] = tested on: Strep. faec.; experiment: in vitro MIC in BHI broth, Strep. faec.; type: cell-based
Source text: as §1, §2

[7] = tested on: Staph. aur.; experiment: in vitro MIC in BHI broth, Staph. aur.; type: cell-based
Source text: as §1, §2

[8] = tested on: Neiss. sic.; experiment: in vitro MIC in BHI broth, Neiss. sic.; type: cell-based
Source text: as §1, §2

[9] = tested on: H. influ.; experiment: in vitro MIC in BHI broth, H. influ.; type: cell-based
Source text: as §1, §2

[10] = tested on: E. Coli; experiment: in vitro MIC in BHI broth, E. Coli; type: cell-based; conditions: Escherichia coli
[11] = tested on: Ent. cloac.; experiment: in vitro MIC in BHI broth, Ent. cloac.; type: cell-based
Source text: as §1, §2

[12] = tested on: Prov. strua.; experiment: in vitro MIC in BHI broth, Prov. strua.; type: cell-based
Source text: as §1, §2

[13] = tested on: Ent. aerog.; experiment: in vitro MIC in BHI broth, Ent. aerog.; type: cell-based
[14] = tested on: Staph. epi; experiment: in vitro MIC in BHI broth, Staph. epi; type: cell-based
Source text: as §1, §2

[15] = tested on: erythromycin A and D susceptible organisms and Gram negative microorganisms resistant to erythromycin A and D; experiment: spectrum of antibacterial activity; type: cell-based
Source text: as §1

[16] = serum levels after oral dosage (micro-biological bioassay) in mice; type: in vivo
Description: Additionally, compound (II) is tested in vivo by the well-known mouse protection test, or by a micro-biological (bioassay) determination of serum levels in a variety of mammals (e.g., mouse, rat, dog).

[17] = Strep. pyog. 203, BHI broth, read-out: MIC
[18] = Kleb. oxy. 024, BHI broth, read-out: MIC
[19] = Serr. mar. 017, BHI broth, read-out: MIC
[20] = Past. mult. 001, BHI broth, read-out: MIC
[21] = Neiss. sic. 000, BHI broth, read-out: MIC
[22] = Ent. cloac. 009, BHI broth, read-out: MIC
[23] = Prov. strua. 013, BHI broth, read-out: MIC
[24] = Staph. epi 111, BHI broth, read-out: MIC
[25] = Kleb. pn. 009, BHI broth, read-out: MIC
[26] = Ent. aerog. 040, BHI broth, read-out: MIC

SMILES	MIC ([1]; Kleb. pn. 031, BHI broth)	MIC [6] [µg/mL]	MIC ([7]; Staph. aur. 400) [µg/mL]	MIC [8] [µg/mL]	MIC ([9]; H. influ. 012) [µg/mL]	MIC ([9]; H. influ. 036) [µg/mL]	MIC ([9]; H. influ. 051) [µg/mL]	MIC ([10]; E. Coli 125) [µg/mL]	MIC ([10]; E. Coli 129) [µg/mL]	MIC ([10]; E. Coli 266) [µg/mL]	MIC ([10]; E. Coli 470) [µg/mL]	MIC [2, 17] [µg/mL]	MIC [3, 18] [µg/mL]	MIC [4, 19] [µg/mL]	MIC [5, 20] [µg/mL]	MIC ([7]; Staph. aur. 005, read-out: MIC) [µg/mL]	MIC ([7]; Staph. aur. 052, read-out: MIC) [µg/mL]	MIC [11, 22] [µg/mL]	MIC [12, 23] [µg/mL]	MIC [14, 24] [µg/mL]	further results
CC[C@H]1OC(=O)[C@H](C)[C@@H](O[C@H]2C[C@@](C)(O)[C@@H](O)[C@H](C)O2)[C@H](C)[C@@H](O[C@@H]2O[C@H](C)C[C@H](N(C)C)[C@H]2O)[C@](C)(O)C[C@@H](C)C(=O)[C@H](C)[C@@H](O)[C@H]1C [(2), Erythromycin D]	(a) (greater than 50)	0.39 (≈ 0.554 µM)	6.25 (≈ 8.88 µM)	6.25 (≈ 8.88 µM)	25 (≈ 35.5 µM)	50 (≈ 71 µM)	12.5 (≈ 17.8 µM)	> 50	> 50	> 50	3.12 (≈ 4.43 µM)	–	–	–	–	–	–	–	–	–	MIC [1]: > 50 µg/mL; MIC [2]: 0.025 µg/mL (≈ 0.0355 µM); MIC [3]: > 50 µg/mL; MIC [4]: > 50 µg/mL; MIC [5]: 6.25 µg/mL (≈ 8.88 µM); MIC ([7]; Staph. aur. 005): 0.39 µg/mL (≈ 0.554 µM); MIC ([7]; Staph. aur. 052): 0.39 µg/mL (≈ 0.554 µM); MIC ([9]; H. influ. 038): 25 µg/mL (≈ 35.5 µM); MIC ([9]; H. influ. 042): 25 µg/mL (≈ 35.5 µM); MIC ([9]; H. influ. 073): 50 µg/mL (≈ 71 µM); MIC ([9]; H. influ. 078): 12.5 µg/mL (≈ 17.8 µM); MIC ([9]; H. influ. 081): 25 µg/mL (≈ 35.5 µM); MIC [11]: > 50 µg/mL; MIC [12]: > 50 µg/mL; MIC [13]: > 50 µg/mL; MIC [14]: 0.2 µg/mL (≈ 0.284 µM)
CC[C@H]1OC(=O)[C@H](C)[C@@H](O[C@H]2C[C@@](C)(OC)[C@@H](O)[C@H](C)O2)[C@H](C)[C@@H](O[C@@H]2O[C@H](C)C[C@H](N(C)C)[C@H]2O)[C@](C)(O)C[C@@H](C)CN(C)[C@H](C)[C@@H](O)[C@]1(C)O [(3), 9-deoxo-9a-methyl-9a-aza-9a-homoerythromycin A]	–	1.56 (≈ 2.08 µM)	–	–	–	–	1.56 (≈ 2.08 µM)	–	6.25 (≈ 8.34 µM)	6.25 (≈ 8.34 µM)	0.78 (≈ 1.04 µM)	0.025 (≈ 0.0334 µM)	25 (≈ 33.4 µM)	50 (≈ 66.8 µM)	0.1 (≈ 0.134 µM)	0.2 (≈ 0.267 µM)	0.39 (≈ 0.521 µM)	25 (≈ 33.4 µM)	50 (≈ 66.8 µM)	0.1 (≈ 0.134 µM)	MIC ([7]; Staph. aur. 400, read-out: MIC): 25 µg/mL (≈ 33.4 µM); MIC [8, 21]: 0.39 µg/mL (≈ 0.521 µM); MIC ([9]; H. influ. 036, read-out: MIC): 0.78 µg/mL (≈ 1.04 µM); MIC ([9]; H. influ. 038, read-out: MIC): 0.78 µg/mL (≈ 1.04 µM); MIC ([9]; H. influ. 042, read-out: MIC): 0.78 µg/mL (≈ 1.04 µM); MIC ([9]; H. influ. 073, read-out: MIC): 0.78 µg/mL (≈ 1.04 µM); MIC ([9]; H. influ. 078, read-out: MIC): 0.39 µg/mL (≈ 0.521 µM); MIC ([9]; H. influ. 081, read-out: MIC): 0.78 µg/mL (≈ 1.04 µM)
CC[C@H]1OC(=O)[C@H](C)[C@@H](O[C@H]2C[C@@](C)(OC)[C@@H](O)[C@H](C)O2)[C@H](C)[C@@H](O[C@@H]2O[C@H](C)C[C@H](N(C)C)[C@H]2O)[C@](C)(O)C[C@@H](C)C(=O)[C@H](C)[C@@H](O)[C@]1(C)O [(1), Erythromycin A]	(a) (greater than 50)	–	6.25 (≈ 8.52 µM)	3.12 (≈ 4.25 µM)	3.12 (≈ 4.25 µM)	3.12 (≈ 4.25 µM)	3.12 (≈ 4.25 µM)	> 50	> 50	> 50	1.56 (≈ 2.13 µM)	0.025 (≈ 0.0341 µM)	> 50	> 50	0.78 (≈ 1.06 µM)	0.05 (≈ 0.0681 µM)	0.1 (≈ 0.136 µM)	> 50	> 50	0.05 (≈ 0.0681 µM)	MIC [1, 25]: > 50 µg/mL; MIC ([6]; Strep. faec. 006, BHI broth, read-out: MIC): 0.39 µg/mL (≈ 0.531 µM); MIC ([9]; H. influ. 038): 1.56 µg/mL (≈ 2.13 µM); MIC ([9]; H. influ. 042): 3.12 µg/mL (≈ 4.25 µM); MIC ([9]; H. influ. 073): 3.12 µg/mL (≈ 4.25 µM); MIC ([9]; H. influ. 078): 1.56 µg/mL (≈ 2.13 µM); MIC ([9]; H. influ. 081): 3.12 µg/mL (≈ 4.25 µM); MIC [13, 26]: > 50 µg/mL
CC[C@H]1OC(=O)[C@H](C)[C@@H](O[C@H]2C[C@@](C)(O)[C@@H](O)[C@H](C)O2)[C@H](C)[C@@H](O[C@@H]2O[C@H](C)C[C@H](N(C)C)[C@H]2O)[C@](C)(O)C[C@@H](C)CN(C)[C@H](C)[C@@H](O)[C@H]1C [Compound (II), 9-deoxo-9a-methyl-9a-aza-9a-homoerythromycin D]	50 micrograms/ml.	–	–	–	–	–	–	25 (≈ 34.8 µM)	12.5 (≈ 17.4 µM)	12.5 (≈ 17.4 µM)	0.39 (≈ 0.542 µM)	0.025 (≈ 0.0348 µM)	50 (≈ 69.5 µM)	> 50	0.2 (≈ 0.278 µM)	0.39 (≈ 0.542 µM)	0.78 (≈ 1.08 µM)	> 50	> 50	0.39 (≈ 0.542 µM)	MIC [1, 25]: 50 µg/mL (≈ 69.5 µM); MIC ([7]; Staph. aur. 400, read-out: MIC): > 50 µg/mL; MIC [8, 21]: 0.78 µg/mL (≈ 1.08 µM); spectrum of antibacterial activity [15]: relatively broad spectrum of antibacterial activity which includes erythromycin A and D susceptible organisms and, in addition, many Gram negative microorganisms resistant to erythromycin A and D; MIC ([9]; H. influ. 012, read-out: MIC): 3.12 µg/mL (≈ 4.34 µM); MIC ([9]; H. influ. 036, read-out: MIC): 3.12 µg/mL (≈ 4.34 µM); MIC ([9]; H. influ. 038, read-out: MIC): 1.56 µg/mL (≈ 2.17 µM); MIC ([9]; H. influ. 042, read-out: MIC): 3.12 µg/mL (≈ 4.34 µM); MIC ([9]; H. influ. 051, read-out: MIC): 3.12 µg/mL (≈ 4.34 µM); MIC ([9]; H. influ. 073, read-out: MIC): 0.39 µg/mL (≈ 0.542 µM); MIC ([9]; H. influ. 078, read-out: MIC): 0.78 µg/mL (≈ 1.08 µM); MIC ([9]; H. influ. 081, read-out: MIC): 3.12 µg/mL (≈ 4.34 µM); absorption after oral dosage [16]: exceptionally well absorbed; serum levels [16]: exceptionally high and long lasting serum levels; MIC [13, 26]: 50 µg/mL (≈ 69.5 µM)

Reference: US4465674A, “Azahomoerythromycin D derivative and intermediates therefor” (Pfizer Inc., priority 1983, dated 1984)
